Columns and labels:
Format in all cases: cell-based
MCF7 [1] = test: SRB assay, % inhibition of tumor cell growth (Example 61); conditions: Homo sapiens, 48 hours, vs DMSO-treated cells
Method: (§1) 3,000-15,000 cells/well were exposed to the test compounds at a concentration of 1 μM for 48 hours, and cytotoxicity was measured using the SRB assay according to Shekan et al (J Natl Cancer Inst (1990) 82, 1107-112). Briefly, cells were plated in 96 well dishes 24 hours prior to compound addition. The assay was terminated with the addition of cold TCA to a final concentration of 10% and the plates were incubated for one hour at 4° C. The plates were then washed 5 times with water and 100 μl of a Sulforhodamine B solution ([…]) was added to each well. The plate was then incubated for 10 minutes at room temperature before removal of unbound dye by washing with 1% acetic acid. The bound dye was solubilized with 10 mM Trizma base and the absorbance read at OD570. Inhibitory activity of the compounds was calculated as % inhibition compared to cells treated with the solvent (DMSO). Table 2 represents the growth inhibitory activity of certain compounds of the invention across a number of tumor cell lines.

A2780 [2] = test: as above; conditions: Homo sapiens, 48 hours, vs DMSO-treated cells
Method: as §1

SW-620 [3] = test: as above; conditions: Homo sapiens, 48 hours, vs DMSO-treated cells
Method: as §1

HCT-116 [4] = test: as above; conditions: Homo sapiens, 48 hours, vs DMSO-treated cells
Method: as §1

PC-3 = test: as above; conditions: Homo sapiens, 48 hours, vs DMSO-treated cells
Method: as §1

MCF7 [5] = test: IC50 determination, SRB assay (Example 62); conditions: Homo sapiens, estimated from fitted curve, growth inhibition
Method: as §1
(§2) The assay was performed similar to example 61. However, test compounds were added at various concentrations, such as from 0.001 to about 0.1 μM, from 0.1 to about 10 μM, or from 1 to about 10 μM, as the need may be, in order to estimate the IC50 values. IC50 values were determined by plotting the percentage inhibitory activity for each concentration, fitting a curve using appropriate software and estimating the concentration at which 50% inhibition of growth would occur.

SW-620 [6] = test: IC50 determination, SRB assay (Example 62); conditions: Homo sapiens, estimated from fitted curve, growth inhibition
Method: as §1, §2

HCT-116 [7] = test: IC50 determination, SRB assay (Example 62); conditions: Homo sapiens, estimated from fitted curve, growth inhibition
Method: as §1, §2

A2780 [8] = test: IC50 determination, SRB assay (Example 62); conditions: Homo sapiens, estimated from fitted curve, growth inhibition
Method: as §1, §2

A-549 = test: SRB assay, % inhibition of tumor cell growth (Example 61); conditions: Homo sapiens, A549, 48 hours, vs DMSO-treated cells
Method: as §1

Row | IC50 (SW-620 [6]) [µM] | IC50 (HCT-116 [7]) [µM] | SMILES | inhibition at 1 µM (MCF7 [1]) [%] | inhibition at 1 µM (A2780 [2]) [%] | inhibition at 1 µM (SW-620 [3]) [%] | inhibition at 1 µM (HCT-116 [4]) [%] | inhibition at 1 µM (PC-3) [%] | IC50 (MCF7 [5]) [µM] | IC50 (A2780 [8]) [µM] | inhibition at 1 µM (A-549) [%]
1 | < 2 | < 0.1 | O=c1c(NCCc2ccc(Oc3ccccc3)cc2)c(Nc2cccnc2)c1=O [SQ-5, 3-[2-(4-Phenoxyphenyl)-ethylamino]-4-(pyridin-3-yl-amino)-cyclobut-3-ene-1,2-dione] | > 50 | > 80 | 0 | > 80 | > 50 | < 10 |  | 
2 | < 0.5 | < 0.1 | O=c1c(NCCCCCCOc2ccc(Cl)c(Cl)c2)c(Nc2ccncc2)c1=O [SQ-15] | > 20 | > 80 | > 20 | > 80 | > 50 |  |  | > 20
3 |  |  | O=c1c(NCc2ccc(Oc3ccccc3)cc2)c(Nc2cccnc2)c1=O [SQ-34, 3-(4-Phenoxy-benzylamino)-4-(pyridin-3-ylamino)-cyclobut-3-ene-1,2-dione] |  | > 20 | 0 | > 20 | > 0 |  |  | 0

Row | SMILES | IC50 (SW-620 [6]) [µM] | IC50 (HCT-116 [7]) [µM] | inhibition at 1 µM (MCF7 [1]) [%] | inhibition at 1 µM (A2780 [2]) [%] | inhibition at 1 µM (SW-620 [3]) [%] | inhibition at 1 µM (HCT-116 [4]) [%] | inhibition at 1 µM (PC-3) [%] | IC50 (MCF7 [5]) [µM] | IC50 (A2780 [8]) [µM] | inhibition at 1 µM (A-549) [%]
4 | O=c1c(NCCCCCCOc2ccc(Cl)cc2)c(Nc2ccncc2)c1=O [SQ-7B] |  | < 0.1 |  | > 80 | > 50 | > 80 | > 50 | < 0.1 | < 0.1 | 
